Test results: ChEMBL document CHEMBL1201862, “PubChem BioAssay data set” (2004)
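Test compounds were applied to cells in 96-well plates for 48 hours at 5 doses. GI50: concentration for 50% inhibition of growth.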 Calls of active or inactive are those of the source. Cut-off read from the data, not from the text of the source: active = GI50 up to about 1.1 µM and inactive = higher.

Experiments:
Test in all cases: NCI anticancer screen, dose series, 48 h
ACHN = test system: ACHN
COLO 205 = test system: COLO 205
DU-145 = test system: DU-145
EKVX = test system: EKVX
HT-29 = test system: HT-29
Hs-578T = test system: Hs-578T
K562 = test system: K562
Malme-3M = test system: Malme-3M
NCI-H23 = test system: NCI-H23
NCI-H460 = test system: NCI-H460
RPMI-8226 = test system: RPMI-8226
RXF 393 = test system: RXF 393
SF-268 = test system: SF-268
SK-MEL-2 = test system: SK-MEL-2
SN12C = test system: SN12C
SNB-19 = test system: SNB-19
SR = test system: SR
TK-10 = test system: TK-10
UACC-257 = test system: UACC-257
UACC-62 = test system: UACC-62

SMILES | GI50 (ACHN) | GI50 (COLO 205) | GI50 (DU-145) | GI50 (EKVX) | GI50 (HT-29) | GI50 (Hs-578T) | GI50 (K562) | GI50 (Malme-3M) | GI50 (NCI-H23) | GI50 (NCI-H460) | GI50 (RPMI-8226) | GI50 (RXF 393) | GI50 (SF-268) | GI50 (SK-MEL-2) | GI50 (SN12C) | GI50 (SNB-19) | GI50 (SR) | GI50 (TK-10) | GI50 (UACC-257) | GI50 (UACC-62)
C[n+]1cn(C2=C([N-]S(=O)(=O)c3ccccc3)C(=O)c3ccccc3C2=O)c2ccccc21 | > 100 µM (inactive) | 2.85 µM (inactive) | 52.7 µM (inactive) | > 100 µM (inactive) | 6.67 µM (inactive) | 41.9 µM (inactive) | 29.9 µM (inactive) | 1.55 µM (inactive) | 16 µM (inactive) | 16.8 µM (inactive) | 71.3 µM (inactive) | 20.3 µM (inactive) | 31.6 µM (inactive) | 11.5 µM (inactive) | 31.3 µM (inactive) | 19.3 µM (inactive) | 44.6 µM (inactive) | 20.8 µM (inactive) | 19.4 µM (inactive) | 22.5 µM (inactive)
CC(C)(C)C1=CC(=CC=C2C=CN(CCCCCCCCCCCO)C=C2)C=C(C(C)(C)C)C1=O | 2.19 µM (inactive) | 1.69 µM (inactive) | 2.88 µM (inactive) | 1.96 µM (inactive) | 3.37 µM (inactive) | 1.87 µM (inactive) | 1.06 µM (active) | 1.46 µM (inactive) | 2.03 µM (inactive) | 2.01 µM (inactive) | 0.338 µM (active) | 0.9 µM (active) | 1.57 µM (inactive) | 1.83 µM (inactive) | 1.25 µM (inactive) | 1.58 µM (inactive) | 0.401 µM (active) | 1.5 µM (inactive) | 1.87 µM (inactive) | 1.5 µM (inactive)
Cn1c(=O)c2nc(CCS)[nH]c2n(C)c1=O | > 100 µM (inactive) | > 100 µM (inactive) | > 100 µM (inactive) | > 100 µM (inactive) | > 100 µM (inactive) | 31.4 µM (inactive) | > 100 µM (inactive) | > 100 µM (inactive) | > 100 µM (inactive) | > 100 µM (inactive) | > 100 µM (inactive) | 90.6 µM (inactive) | 35.6 µM (inactive) | > 100 µM (inactive) | > 100 µM (inactive) | > 100 µM (inactive) | > 100 µM (inactive) | 50.2 µM (inactive) | > 100 µM (inactive) | > 100 µM (inactive)
CCCCC[C@@H]1OCO[C@@]2(C)/C=C(C)\C=C/C(=O)O[C@H]([C@@H](C)[C@@H](O)[C@H](C)[C@@]3(O)C[C@@H](O[C@H]4C[C@@H](O)[C@H](O)[C@@H](C)O4)[C@H](C)[C@@H](C)O3)[C@@H](OC)/C=C\C=C(\C)C[C@@H]1[C@@H]2O (stereo in doubt) | < 0.005 µM (active) | < 0.005 µM (active) | < 0.005 µM (active) | < 0.005 µM (active) | < 0.005 µM (active) | 1.2 µM (inactive) | < 0.005 µM (active) | < 0.005 µM (active) | 0.5 µM (active) | < 0.005 µM (active) | < 0.005 µM (active) | < 0.005 µM (active) | < 0.005 µM (active) | < 0.005 µM (active) | 0.0231 µM (active) | 0.0995 µM (active) | < 0.005 µM (active) | 0.119 µM (active) | < 0.005 µM (active) | < 0.005 µM (active)
C[C@H]1CC[C@]2(NC1)O[C@H]1C[C@H]3[C@@H]4CC[C@H]5C[C@@H](O[C@@H]6O[C@H](CO)[C@H](O[C@@H]7O[C@H](CO)[C@@H](O)[C@H](O[C@@H]8OC[C@@H](O)[C@H](O)[C@H]8O)[C@H]7O[C@@H]7O[C@H](CO)[C@@H](O)[C@H](O)[C@H]7O)[C@H](O)[C@H]6O)CC[C@]5(C)[C@H]4CC[C@]3(C)[C@H]1[C@@H]2C [TOMATINE] | 1.71 µM (inactive) | 2 µM (inactive) | 1.64 µM (inactive) | 0.836 µM (active) | 1.91 µM (inactive) | 1.64 µM (inactive) | 2.74 µM (inactive) | 0.605 µM (active) | 1.65 µM (inactive) | 2.18 µM (inactive) | 0.766 µM (active) | 1.8 µM (inactive) | 1.55 µM (inactive) | 1.68 µM (inactive) | 1.43 µM (inactive) | 1.24 µM (inactive) | 2.42 µM (inactive) | 1.54 µM (inactive) | 2.12 µM (inactive) | 1.01 µM (active)
Nc1nccc(-c2c[nH]c3cc(Br)ccc23)n1 [MERIDIANIN D] | 19.8 µM (inactive) | 18.7 µM (inactive) | 34.5 µM (inactive) | 1.59 µM (inactive) | 20.3 µM (inactive) | 25.9 µM (inactive) | 33.5 µM (inactive) | 34.8 µM (inactive) | 25.2 µM (inactive) | 30 µM (inactive) | 22.6 µM (inactive) | 15.5 µM (inactive) | 31 µM (inactive) | 20 µM (inactive) | 21.7 µM (inactive) | 20.7 µM (inactive) | 17.3 µM (inactive) | 22.3 µM (inactive) | 30.2 µM (inactive) | 22 µM (inactive)
COC(=O)c1cc(C)n(CN(Cc2ccccc2)Cn2nc(C(=O)OC)cc2C)n1 | > 43.1 µM (inactive) | > 46.9 µM (inactive) | > 62.1 µM (inactive) | 66.5 µM (inactive) | > 52.7 µM (inactive) | > 100 µM (inactive) | > 100 µM (inactive) | > 100 µM (inactive) | > 100 µM (inactive) | > 100 µM (inactive) | > 41 µM (inactive) | > 53.7 µM (inactive) | > 89.9 µM (inactive) | > 100 µM (inactive) | > 100 µM (inactive) | > 100 µM (inactive) | 0.873 µM (active) | > 100 µM (inactive) | > 100 µM (inactive) | > 31.9 µM (inactive)
CC(C)(C)c1cc(C2=NN(c3ccccc3)C(c3ccccc3)C2)cc(C(C)(C)C)c1O (stereo not given) | > 100 µM (inactive) | 35.7 µM (inactive) | > 100 µM (inactive) | > 100 µM (inactive) | > 100 µM (inactive) | > 100 µM (inactive) | > 100 µM (inactive) | > 100 µM (inactive) | > 100 µM (inactive) | > 100 µM (inactive) | > 100 µM (inactive) | > 100 µM (inactive) | > 100 µM (inactive) | > 100 µM (inactive) | > 100 µM (inactive) | > 100 µM (inactive) | 29.3 µM (inactive) | > 100 µM (inactive) | 35.2 µM (inactive) | > 100 µM (inactive)
C=CCN1C(=O)/C(=C/c2ccc(Cl)cc2)N=C1SC/C=C/C | 56.2 µM (inactive) | 32.1 µM (inactive) | 60.8 µM (inactive) | 26.4 µM (inactive) | 30.9 µM (inactive) | 37.7 µM (inactive) | 25.5 µM (inactive) | 33.7 µM (inactive) | 32.1 µM (inactive) | 62.4 µM (inactive) | 17.3 µM (inactive) | 15.7 µM (inactive) | 48.3 µM (inactive) | 24.2 µM (inactive) | 21.7 µM (inactive) | 22.9 µM (inactive) | 17.5 µM (inactive) | > 100 µM (inactive) | 37.8 µM (inactive) | 42.3 µM (inactive)
CC(=O)Nc1sccc1S(=O)(=O)c1ccc(Cl)cc1 | > 100 µM (inactive) | > 100 µM (inactive) | > 100 µM (inactive) | > 100 µM (inactive) | > 100 µM (inactive) | > 100 µM (inactive) | > 100 µM (inactive) | > 100 µM (inactive) | > 100 µM (inactive) | > 100 µM (inactive) | > 100 µM (inactive) | > 100 µM (inactive) | > 100 µM (inactive) | > 100 µM (inactive) | > 100 µM (inactive) | > 100 µM (inactive) | > 100 µM (inactive) | > 100 µM (inactive) | > 100 µM (inactive) | > 100 µM (inactive)
C=CC1C(OC2OC(CO)C(O)C(O)C2O)OC=C(C(=O)OC)C1CC1CC(=O)CC(CCc2ccc(O)cc2)O1 (stereo not given) | > 100 µM (inactive) | > 100 µM (inactive) | > 100 µM (inactive) | > 100 µM (inactive) | > 100 µM (inactive) | > 100 µM (inactive) | > 100 µM (inactive) | > 100 µM (inactive) | > 100 µM (inactive) | > 100 µM (inactive) | > 100 µM (inactive) | > 100 µM (inactive) | > 100 µM (inactive) | > 100 µM (inactive) | > 100 µM (inactive) | > 100 µM (inactive) | > 100 µM (inactive) | > 100 µM (inactive) | > 100 µM (inactive) | > 100 µM (inactive)
O=c1[nH]c2cc(Cl)ccc2nc1/C(=N/Nc1ccccc1)C(O)c1ccco1 (stereo not given) | > 100 µM (inactive) | > 100 µM (inactive) | > 100 µM (inactive) | > 100 µM (inactive) | > 100 µM (inactive) | > 100 µM (inactive) | > 100 µM (inactive) | > 100 µM (inactive) | > 100 µM (inactive) | > 100 µM (inactive) | > 100 µM (inactive) | > 100 µM (inactive) | > 100 µM (inactive) | > 100 µM (inactive) | > 100 µM (inactive) | > 100 µM (inactive) | > 100 µM (inactive) | > 100 µM (inactive) | > 100 µM (inactive) | > 100 µM (inactive)
COc1cc(/C=C/C=C2\CC(C)C/C(=C\C=C\c3ccc(O)c(OC)c3)C2=O)ccc1O (stereo not given) | 4.98 µM (inactive) | 16.7 µM (inactive) | 19.5 µM (inactive) | 10.3 µM (inactive) | 4.08 µM (inactive) | 10 µM (inactive) | 3.93 µM (inactive) | 9.48 µM (inactive) | 12.2 µM (inactive) | 14.5 µM (inactive) | 7.13 µM (inactive) | 4.55 µM (inactive) | 10.3 µM (inactive) | 17.1 µM (inactive) | 31.3 µM (inactive) | 23 µM (inactive) | 1.69 µM (inactive) | 3.05 µM (inactive) | 20.2 µM (inactive) | 11.9 µM (inactive)
